Results as given in PubChem BioAssay AID1918933 (Molecular Pharmacology Branch, DTP, NCI, 2023).

System: 186277-243-T-J2-PDC complex spheroid viability
Assay: Anticancer human tumor 186277-243-T-J2-PDC patient-derived colon adenocarcinoma cell line growth inhibition
Conditions: for IC50: curve of first compound; for viability, T/C: stronger effect = lower value; active means viability on the fitted dose curve at most 10% of control; inactive means the rest
Method in brief: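 Complex spheroids of tumor cells with HUVEC and human MSCs, exposed to iadademstat combined with other agents. Each agent tested in half-log steps from near clinical Cmax (else 10 microM top), DMSO ≤0.25%.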

[1] = second compound 0.1 µM, first compound 0.000316 µM
[2] = second compound 0.1 µM, first compound 0.001 µM
[3] = second compound 0.1 µM, first compound 0.00316 µM
[4] = second compound 0.1 µM, first compound 0.01 µM
[5] = second compound 0.1 µM, first compound 0.0316 µM
[6] = second compound 0.1 µM, first compound 0.1 µM
[7] = second compound 0.316 µM, first compound 0.000316 µM
[8] = second compound 0.316 µM, first compound 0.001 µM
[9] = second compound 0.316 µM, first compound 0.00316 µM
[10] = second compound 0.316 µM, first compound 0.01 µM
[11] = second compound 0.316 µM, first compound 0.0316 µM
[12] = second compound 0.316 µM, first compound 0.1 µM
[13] = second compound 1 µM, first compound 0.000316 µM
[14] = second compound 1 µM, first compound 0.001 µM
[15] = second compound 1 µM, first compound 0.00316 µM
[16] = second compound 1 µM, first compound 0.01 µM
[17] = second compound 1 µM, first compound 0.0316 µM
[18] = second compound 1 µM, first compound 0.1 µM
[19] = second compound 3.16 µM, first compound 0.000316 µM
[20] = second compound 3.16 µM, first compound 0.001 µM
[21] = second compound 3.16 µM, first compound 0.00316 µM
[22] = second compound 3.16 µM, first compound 0.01 µM
[23] = second compound 3.16 µM, first compound 0.0316 µM
[24] = second compound 3.16 µM, first compound 0.1 µM
[25] = second compound 10 µM, first compound 0.000316 µM
[26] = second compound 10 µM, first compound 0.001 µM
[27] = second compound 10 µM, first compound 0.00316 µM
[28] = second compound 10 µM, first compound 0.01 µM
[29] = second compound 10 µM, first compound 0.0316 µM
[30] = second compound 10 µM, first compound 0.1 µM
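Further: 7 day exposure to compounds.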
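Wherever viability, T/C is given: 100% = DMSO vehicle control viability.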

CC(C)CC(NC(=O)C(Cc1ccccc1)NC(=O)c1cnccn1)B(O)O (stereo not given) + NC1CCC(NC2CC2c2ccccc2)CC1
3.72 nM: IC50 (second compound 0.1 µM)
4.54 nM: IC50 (second compound 3.16 µM)
3.94 nM: IC50 (second compound 0.316 µM)
3.67 nM: IC50 (second compound 1 µM)
3.95 nM: IC50 (second compound 10 µM)
active: viability, T/C [4] 0.46% | viability, T/C [5] 0.13% | viability, T/C [6] 0.28% | viability, T/C [10] 0.8% | viability, T/C [11] 0.31% | viability, T/C [12] 0.65% | viability, T/C [16] 0.43% | viability, T/C [17] 0.44% | viability, T/C [18] 0.16% | viability, T/C [22] 0.98% | viability, T/C [23] 0.25% | viability, T/C [24] 0.11% | viability, T/C [28] 0.43% | viability, T/C [29] 0.16% | viability, T/C [30] 0.43%
inactive: viability, T/C [1] 103% | viability, T/C [2] 107% | viability, T/C [3] 58.1% | viability, T/C [7] 113% | viability, T/C [8] 107% | viability, T/C [9] 61.5% | viability, T/C [13] 111% | viability, T/C [14] 107% | viability, T/C [15] 57.4% | viability, T/C [19] 107% | viability, T/C [20] 124% | viability, T/C [21] 72.7% | viability, T/C [25] 111% | viability, T/C [26] 98.5% | viability, T/C [27] 62%

CC(C)CC(NC(=O)CNC(=O)c1cc(Cl)ccc1Cl)B1OC(=O)CC(CC(=O)O)(C(=O)O)O1 (stereo not given) + NC1CCC(NC2CC2c2ccccc2)CC1
active: viability, T/C [6] 1.64% | viability, T/C [12] 1.44% | viability, T/C [18] 1.22% | viability, T/C [24] 1.04% | viability, T/C [30] 1.05%
20.3 nM: IC50 (second compound 0.316 µM)
20.5 nM: IC50 (second compound 0.1 µM)
inactive: viability, T/C [1] 102% | viability, T/C [2] 119% | viability, T/C [3] 115% | viability, T/C [4] 98.8% | viability, T/C [5] 20.6% | viability, T/C [7] 118% | viability, T/C [8] 114% | viability, T/C [9] 117% | viability, T/C [10] 96.6% | viability, T/C [11] 20.7% | viability, T/C [13] 113% | viability, T/C [14] 114% | viability, T/C [15] 111% | viability, T/C [16] 87.3% | viability, T/C [17] 18.3% | viability, T/C [19] 112% | viability, T/C [20] 107% | viability, T/C [21] 110% | viability, T/C [22] 96.5% | viability, T/C [23] 17.1% | viability, T/C [25] 105% | viability, T/C [26] 111% | viability, T/C [27] 111% | viability, T/C [28] 98.5% | viability, T/C [29] 15.1%
18.6 nM: IC50 (second compound 1 µM)
19.6 nM: IC50 (second compound 3.16 µM)
19.5 nM: IC50 (second compound 10 µM)

Nc1ccccc1NC(=O)c1ccc(CNC(=O)OCc2cccnc2)cc1 + NC1CCC(NC2CC2c2ccccc2)CC1
1520 nM: IC50 (second compound 1 µM)
inactive: viability, T/C (second compound 0.1 µM, first compound 0.00949 µM) 112% | viability, T/C (second compound 0.1 µM, first compound 0.03 µM) 96.2% | viability, T/C (second compound 0.1 µM, first compound 0.0949 µM) 95.3% | viability, T/C (second compound 0.1 µM, first compound 0.3 µM) 110% | viability, T/C (second compound 0.1 µM, first compound 0.949 µM) 69.6% | viability, T/C (second compound 0.1 µM, first compound 3 µM) 12.5% | viability, T/C (second compound 0.316 µM, first compound 0.00949 µM) 112% | viability, T/C (second compound 0.316 µM, first compound 0.03 µM) 113% | viability, T/C (second compound 0.316 µM, first compound 0.0949 µM) 109% | viability, T/C (second compound 0.316 µM, first compound 0.3 µM) 96.5% | viability, T/C (second compound 0.316 µM, first compound 0.949 µM) 68.7% | viability, T/C (second compound 0.316 µM, first compound 3 µM) 13.5% | viability, T/C (second compound 1 µM, first compound 0.00949 µM) 112% | viability, T/C (second compound 1 µM, first compound 0.03 µM) 113% | viability, T/C (second compound 1 µM, first compound 0.0949 µM) 92.8% | viability, T/C (second compound 1 µM, first compound 0.3 µM) 107% | viability, T/C (second compound 1 µM, first compound 0.949 µM) 74.9% | viability, T/C (second compound 1 µM, first compound 3 µM) 13.7% | viability, T/C (second compound 3.16 µM, first compound 0.00949 µM) 118% | viability, T/C (second compound 3.16 µM, first compound 0.03 µM) 113% | viability, T/C (second compound 3.16 µM, first compound 0.0949 µM) 106% | viability, T/C (second compound 3.16 µM, first compound 0.3 µM) 108% | viability, T/C (second compound 3.16 µM, first compound 0.949 µM) 67.6% | viability, T/C (second compound 3.16 µM, first compound 3 µM) 12.8% | viability, T/C (second compound 10 µM, first compound 0.00949 µM) 106% | viability, T/C (second compound 10 µM, first compound 0.03 µM) 98.7% | viability, T/C (second compound 10 µM, first compound 0.0949 µM) 103% | viability, T/C (second compound 10 µM, first compound 0.3 µM) 93.4% | viability, T/C (second compound 10 µM, first compound 0.949 µM) 71.1%
active: viability, T/C (second compound 10 µM, first compound 3 µM) 8.04%
1400 nM: IC50 (second compound 0.316 µM)
1390 nM: IC50 (second compound 10 µM)
1410 nM: IC50 (second compound 0.1 µM)
1380 nM: IC50 (second compound 3.16 µM)

O=C(c1cc(Cc2n[nH]c(=O)c3ccccc23)ccc1F)N1CCN(C(=O)C2CC2)CC1 + NC1CCC(NC2CC2c2ccccc2)CC1
inactive: viability, T/C [5] 121% | viability, T/C [6] 121% | viability, T/C (second compound 0.1 µM, first compound 0.316 µM) 117% | viability, T/C (second compound 0.1 µM, first compound 1 µM) 123% | viability, T/C (second compound 0.1 µM, first compound 3.16 µM) 121% | viability, T/C (second compound 0.1 µM, first compound 10 µM) 94% | viability, T/C [11] 119% | viability, T/C [12] 114% | viability, T/C (second compound 0.316 µM, first compound 0.316 µM) 117% | viability, T/C (second compound 0.316 µM, first compound 1 µM) 113% | viability, T/C (second compound 0.316 µM, first compound 3.16 µM) 127% | viability, T/C (second compound 0.316 µM, first compound 10 µM) 84.1% | viability, T/C [17] 111% | viability, T/C [18] 112% | viability, T/C (second compound 1 µM, first compound 0.316 µM) 122% | viability, T/C (second compound 1 µM, first compound 1 µM) 123% | viability, T/C (second compound 1 µM, first compound 3.16 µM) 121% | viability, T/C (second compound 1 µM, first compound 10 µM) 79.1% | viability, T/C [23] 120% | viability, T/C [24] 120% | viability, T/C (second compound 3.16 µM, first compound 0.316 µM) 119% | viability, T/C (second compound 3.16 µM, first compound 1 µM) 132% | viability, T/C (second compound 3.16 µM, first compound 3.16 µM) 124% | viability, T/C (second compound 3.16 µM, first compound 10 µM) 80.5% | viability, T/C [29] 111% | viability, T/C [30] 109% | viability, T/C (second compound 10 µM, first compound 0.316 µM) 114% | viability, T/C (second compound 10 µM, first compound 1 µM) 134% | viability, T/C (second compound 10 µM, first compound 3.16 µM) 109% | viability, T/C (second compound 10 µM, first compound 10 µM) 69.9%
> 10000 nM: IC50 (second compound 0.1 µM) | IC50 (second compound 0.316 µM) | IC50 (second compound 1 µM) | IC50 (second compound 3.16 µM) | IC50 (second compound 10 µM)
